Experimental data reported in PubChem BioAssay AID256 (DTP/NCI, 2004).
Where “and” joins values, the source holds several entries; their conditions need not be identical. Equal entries are not always repeated. Inconclusive results and toxic doses are left out.

Test system: CD2F1 mice, L1210 leukemia ip, survival T/C
Experiment: NCI In Vivo Anticancer Drug Screen. Data for tumor model L1210 Leukemia (intraperitoneal) in CD2F1 (CDF1) mice
Conditions: higher = longer survival
How it was run: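 In this screen, transplantable tumors were grown in mice given either the compound or its vehicle. Results were expressed as the treated measurement relative to the control measurement.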

[1] = endpoint: mean survival time, dose: 100.0 mg/kg/injection, schedule: Q01DX001 (ip), vehicle: saline
[2] = endpoint: mean survival time, dose: 100.0 mg/kg/injection, schedule: Q01DX001 (ip), vehicle: saline with Tween-80
[3] = endpoint: mean survival time, dose: 75.0 mg/kg/injection, schedule: Q01DX001 (ip), vehicle: saline
[4] = endpoint: mean survival time, dose: 100.0 mg/kg/injection, schedule: Q01DX009 (ip), vehicle: saline with Tween-80
[5] = endpoint: mean survival time, dose: 200.0 mg/kg/injection, schedule: Q01DX001 (ip), vehicle: saline with Tween-80
[6] = endpoint: mean survival time, dose: 400.0 mg/kg/injection, schedule: Q01DX001 (ip), vehicle: saline with Tween-80
[7] = endpoint: mean survival time, dose: 100.0 mg/kg/injection, schedule: Q04DX003 (ip), vehicle: saline with Tween-80
[8] = endpoint: mean survival time, dose: 200.0 mg/kg/injection, schedule: Q04DX003 (ip), vehicle: saline with Tween-80

CN(C)CCCOc1nc2c(c(=O)n(C)c(=O)n2C)n1C (tested in a mixture with another compound)
T/C (endpoint: median survival time, dose: 6.25 mg/kg/injection, schedule: Q01DX009 (ip), vehicle: Klucel (hydroxypropylcellulose) (HPC)): 111 % of control
T/C (endpoint: median survival time, dose: 12.5 mg/kg/injection, schedule: Q01DX009 (ip), vehicle: Klucel (hydroxypropylcellulose) (HPC)): 116 % of control and 117 % of control
T/C (endpoint: median survival time, dose: 50.0 mg/kg/injection, schedule: Q01DX009 (ip), vehicle: Klucel (hydroxypropylcellulose) (HPC)): 154 % of control and 176 % of control
T/C (endpoint: median survival time, dose: 100.0 mg/kg/injection, schedule: Q01DX009 (ip), vehicle: Klucel (hydroxypropylcellulose) (HPC)): 155 % of control and 185 % of control
T/C (endpoint: median survival time, dose: 200.0 mg/kg/injection, schedule: Q01DX009 (ip), vehicle: Klucel (hydroxypropylcellulose) (HPC)): 172 % of control

COc1ccc(Cl)[n+]([O-])n1
T/C (endpoint: mean survival time, dose: 3.12 mg/kg/injection, schedule: Q01DX009 (ip), vehicle: Klucel (hydroxypropylcellulose) (HPC)): 94 % of control and 103 % of control
T/C (endpoint: mean survival time, dose: 6.25 mg/kg/injection, schedule: Q01DX009 (ip), vehicle: Klucel (hydroxypropylcellulose) (HPC)): 97 % of control and 101 % of control
T/C (endpoint: mean survival time, dose: 12.5 mg/kg/injection, schedule: Q01DX009 (ip), vehicle: Klucel (hydroxypropylcellulose) (HPC)): 96 % of control and 106 % of control
T/C (endpoint: mean survival time, dose: 25.0 mg/kg/injection, schedule: Q01DX009 (ip), vehicle: Klucel (hydroxypropylcellulose) (HPC)): 98 % of control and 106 % of control
T/C (endpoint: mean survival time, dose: 50.0 mg/kg/injection, schedule: Q01DX009 (ip), vehicle: Klucel (hydroxypropylcellulose) (HPC)): 94 % of control and 101 % of control
T/C (endpoint: mean survival time, dose: 100.0 mg/kg/injection, schedule: Q01DX009 (ip), vehicle: Klucel (hydroxypropylcellulose) (HPC)): 101 % of control and 104 % of control

Nc1nc2ncc(CN(N=O)c3ccc(C(=O)NC(CCC(=O)O)C(=O)O)cc3)nc2c(=O)[nH]1 (stereo not given)
T/C (endpoint: mean survival time, dose: 10.0 mg/kg/injection, schedule: Q01DX009 (ip), vehicle: water): 102 % of control
T/C (endpoint: mean survival time, dose: 20.0 mg/kg/injection, schedule: Q01DX009 (ip), vehicle: water): 101 % of control
T/C (endpoint: mean survival time, dose: 40.0 mg/kg/injection, schedule: Q01DX009 (ip), vehicle: water): 98 % of control
T/C (endpoint: mean survival time, dose: 80.0 mg/kg/injection, schedule: Q01DX009 (ip), vehicle: distilled water + Tween-80): 94 % of control
T/C (endpoint: mean survival time, dose: 160.0 mg/kg/injection, schedule: Q01DX009 (ip), vehicle: distilled water + Tween-80): 90 % of control

CC1(C)CC(=O)C(C)(C)C(=O)C1
T/C [1]: 100 % of control

C=C1C(=O)OC2/C=C(\C)C3OC3/C=C(/C(=O)OC)C(O)C(OC(=O)C3(C)OC3C)C12 (stereo not given)
T/C [2]: 104 % of control

CC(C)(C)N1CCc2cc3c(cc2C1)OCO3
T/C (endpoint: mean survival time, dose: 50.0 mg/kg/injection, schedule: Q01DX001 (ip), vehicle: saline): 100 % of control
T/C [3]: 103 % of control
T/C [1]: 96 % of control and 97 % of control

CCC(COC(=O)c1ccc([N+](=O)[O-])cc1)NC1CCCCC1 (stereo not given)
T/C [3]: 102 % of control
T/C (endpoint: mean survival time, dose: 150.0 mg/kg/injection, schedule: Q01DX001 (ip), vehicle: saline): 103 % of control
T/C (endpoint: mean survival time, dose: 300.0 mg/kg/injection, schedule: Q01DX001 (ip), vehicle: saline): 101 % of control

CS/C(N)=N\C(=S)Nc1ccccc1
T/C [4]: 103 % of control
T/C (endpoint: mean survival time, dose: 200.0 mg/kg/injection, schedule: Q01DX009 (ip), vehicle: saline with Tween-80): 103 % of control
T/C (endpoint: mean survival time, dose: 400.0 mg/kg/injection, schedule: Q01DX009 (ip), vehicle: saline with Tween-80): 101 % of control

Cc1ccc(/C=N/NC(=O)CNC(=O)Nc2cccc([N+](=O)[O-])c2)cc1
T/C (endpoint: mean survival time, dose: 50.0 mg/kg/injection, schedule: Q01DX009 (ip), vehicle: saline with Tween-80): 92 % of control
T/C [4]: 88 % of control

CC12CCC3C4CCC(=O)C(CCC(=O)O)=C4CCC3(CO1)C2 (stereo not given)
T/C [2]: 102 % of control
T/C [5]: 95 % of control
T/C [6]: 94 % of control

Cc1cc2c(=O)cc(-c3ccccc3)oc2c(C(=O)O)c1C
T/C (endpoint: median survival time, dose: 31.75 mg/kg/injection, schedule: Q01DX005 (ip), vehicle: saline with Tween-80): 109 % of control
T/C (endpoint: median survival time, dose: 62.5 mg/kg/injection, schedule: Q01DX005 (ip), vehicle: saline with Tween-80): 106 % of control
T/C (endpoint: median survival time, dose: 125.0 mg/kg/injection, schedule: Q01DX005 (ip), vehicle: saline with Tween-80): 104 % of control
T/C (endpoint: median survival time, dose: 250.0 mg/kg/injection, schedule: Q01DX005 (ip), vehicle: saline with Tween-80): 102 % of control

CC(C)CC(NC(=O)CN)C(=O)O (stereo not given)
T/C (endpoint: mean survival time, dose: 100.0 mg/kg/injection, schedule: Q04DX002 (ip), vehicle: saline): 93 % of control
T/C (endpoint: mean survival time, dose: 200.0 mg/kg/injection, schedule: Q04DX002 (ip), vehicle: saline): 96 % of control
T/C (endpoint: mean survival time, dose: 400.0 mg/kg/injection, schedule: Q04DX002 (ip), vehicle: saline): 107 % of control

CS(=O)(=O)c1ccnc2ccccc12
T/C (endpoint: mean survival time, dose: 100.0 mg/kg/injection, schedule: Q04DX003 (ip), vehicle: saline): 98 % of control
T/C (endpoint: mean survival time, dose: 200.0 mg/kg/injection, schedule: Q04DX003 (ip), vehicle: saline): 92 % of control
T/C (endpoint: mean survival time, dose: 400.0 mg/kg/injection, schedule: Q04DX003 (ip), vehicle: saline): 95 % of control

CCC12CCCN3CCc4c(n(c5ccccc45)C(O)(C(=O)OC)C1)C32 (stereo not given)
T/C (endpoint: mean survival time, dose: 5.0 mg/kg/injection, schedule: Q01DX001 (ip), vehicle: saline): 108 % of control
T/C (endpoint: mean survival time, dose: 10.0 mg/kg/injection, schedule: Q01DX001 (ip), vehicle: saline): 101 % of control
T/C (endpoint: mean survival time, dose: 20.0 mg/kg/injection, schedule: Q01DX001 (ip), vehicle: saline): 102 % of control
T/C (endpoint: mean survival time, dose: 40.0 mg/kg/injection, schedule: Q01DX001 (ip), vehicle: saline): 101 % of control

N=C(N)N(CCS)CC(=O)O
T/C [5]: 87 % of control
T/C [6]: 90 % of control

C[N+](C)(C)C.[Cl][Fe]([Cl])([Cl])[Cl]
T/C (endpoint: mean survival time, dose: 3.13 mg/kg/injection, schedule: Q01DX009 (ip), vehicle: saline): 94 % of control
T/C (endpoint: mean survival time, dose: 6.25 mg/kg/injection, schedule: Q01DX009 (ip), vehicle: saline): 97 % of control
T/C (endpoint: mean survival time, dose: 12.5 mg/kg/injection, schedule: Q01DX009 (ip), vehicle: saline): 91 % of control

CCCCN(CCCC)CC(O)c1cc(-c2cc(C(O)CN(CCCC)CCCC)c3ccccc3n2)nc2ccccc12 (stereo not given)
T/C [7]: 95 % of control
T/C [8]: 86 % of control

CC(=O)Nc1cc(N(CCOS(C)(=O)=O)CCOS(C)(=O)=O)ccc1N=O
T/C (endpoint: mean survival time, dose: 0.25 mg/kg/injection, schedule: Q01DX009 (ip), vehicle: saline): 117 % of control
T/C (endpoint: mean survival time, dose: 0.5 mg/kg/injection, schedule: Q01DX009 (ip), vehicle: saline): 116 % of control
T/C (endpoint: mean survival time, dose: 1.0 mg/kg/injection, schedule: Q01DX009 (ip), vehicle: saline): 95 % of control
T/C (endpoint: mean survival time, dose: 1.5 mg/kg/injection, schedule: Q04DX003 (ip), vehicle: saline): 120 % of control
T/C (endpoint: mean survival time, dose: 2.0 mg/kg/injection, schedule: Q01DX009 (ip), vehicle: saline): 95 % of control
T/C (endpoint: mean survival time, dose: 3.0 mg/kg/injection, schedule: Q04DX003 (ip), vehicle: saline): 115 % of control
T/C (endpoint: mean survival time, dose: 6.0 mg/kg/injection, schedule: Q04DX003 (ip), vehicle: saline): 107 % of control

N#CCCn1c2ccccc2c2ccccc21
T/C [7]: 98 % of control
T/C [8]: 94 % of control
T/C (endpoint: mean survival time, dose: 400.0 mg/kg/injection, schedule: Q04DX003 (ip), vehicle: saline with Tween-80): 94 % of control

CC1CC(O)C(NC(=O)NCCCl)C(O)C1 (stereo not given)
T/C [2]: 102 % of control
T/C [5]: 102 % of control
T/C [6]: 110 % of control

N=C(N)c1ccccc1
T/C [1]: 94 % of control
T/C (endpoint: mean survival time, dose: 200.0 mg/kg/injection, schedule: Q01DX001 (ip), vehicle: saline): 100 % of control
T/C (endpoint: mean survival time, dose: 400.0 mg/kg/injection, schedule: Q01DX001 (ip), vehicle: saline): 94 % of control

Nc1ccc(OCCc2c(N)nc(N)nc2N)cc1
T/C (endpoint: mean survival time, dose: 100.0 mg/kg/injection, schedule: Q04DX002 (ip), vehicle: Klucel (hydroxypropylcellulose) (HPC)): 98 % of control
T/C (endpoint: mean survival time, dose: 200.0 mg/kg/injection, schedule: Q04DX002 (ip), vehicle: Klucel (hydroxypropylcellulose) (HPC)): 102 % of control
T/C (endpoint: mean survival time, dose: 400.0 mg/kg/injection, schedule: Q04DX002 (ip), vehicle: Klucel (hydroxypropylcellulose) (HPC)): 98 % of control

Cc1cn(C2CC(O)C(COP(N)(N)=O)O2)c(=O)[nH]c1=O (stereo not given)
T/C (endpoint: mean survival time, dose: 12.5 mg/kg/injection, schedule: Q01DX005 (ip), vehicle: distilled water + Tween-80): 98 % of control
T/C (endpoint: mean survival time, dose: 25.0 mg/kg/injection, schedule: Q01DX005 (ip), vehicle: distilled water + Tween-80): 98 % of control
T/C (endpoint: mean survival time, dose: 50.0 mg/kg/injection, schedule: Q01DX005 (ip), vehicle: distilled water + Tween-80): 98 % of control
T/C (endpoint: mean survival time, dose: 100.0 mg/kg/injection, schedule: Q01DX005 (ip), vehicle: distilled water + Tween-80): 96 % of control
T/C (endpoint: mean survival time, dose: 200.0 mg/kg/injection, schedule: Q01DX005 (ip), vehicle: distilled water + Tween-80): 98 % of control

CC1CC(C)(C)N=C(CC(=O)N2Cc3cc4ccccc4nc3C2)O1 (stereo not given)
T/C [2]: 96 % of control
T/C [5]: 104 % of control
T/C [6]: 96 % of control
